According to US20080015224A1, “Nitroxide superoxide dismutase mimetics to treat extracellular superoxide dismutase deficiencies” (priority 2006, published 2008):
“Also recorded” adds a separate entry of the source.

Legend:
[1] = tested on: O2−. generated by xanthine plus xanthine oxidase; assay: Inhibition of O2−. generated by xanthine-xanthine oxidase in vitro (SOD mimetic activity, lucigenin chemiluminescence); format: biochemical; details: for Maximum inhibition, %: O2−. generated by xanthine-xanthine oxidase in vitro, means ± SE, 5 studies; for O2−. generated by a xanthine-xanthine oxidase reaction extinguished: tested in PBS at 10^−4 M
Experimental: The SOD activities of Ns were evaluated in vitro for their efficacy in dampening O2^−. generated by xanthine (25 μmol/l) plus xanthine oxidase (9 IU/ml). Their lipid solubility was assessed by shaking the Ns in a 50:50 mixture of PBS (Ambion, Austin, Tex.) and chloroform (CHCl3; EM Science, Gibbstown, N.J.), taking an aliquot of the PBS phase, evaporating the CHCl3phase to dryness, reconstituting it in PBS, and assessing the SOD activities in the two solutions. O2^−. was assessed by chemiluminescence with 5 μM lucigenin (AutoLumatPlus LB 953; EG&G, Berthold, Germany). The reduction in the stable peak value for chemiluminescence for each N, relative to vehicle, defined the SOD mimetic activity.
SOD activity by the nitroxides was assessed in vitro (Table 1). […] The ratio of the activity that partitioned into CHCl3 compared with PBS was examined.

[2] = tested on: spontaneously hypertensive rat (SHR); assay: Acute antihypertensive response (MAP, HR) to graded intravenous doses in anesthetized SHR; format: in vivo; details: for acute change in MAP and HR: graded intravenous doses (nitroxides 17-270 μmol/kg; SOD 34-540 U/kg)
Experimental: Experiments were approved by the Georgetown University Animal Care and Use Committee. Male SHR weighing 250-350 g (Taconic, Germantown, N.Y.) were anesthetized with thiobutabarbital (Inactin; Sigma, St. Louis, Mo.) (10 mg/100 g) after halothane (Halocarbon Laboratories, River Edge, N.J.) induction. Rats received 0.9% NaCl at 2 ml/h IV up to the time of receiving drugs to maintain euvolemia. A femoral artery was cannulated with polyethelene (PE)-50 tubing connected to a digital blood pressure analyzer (Micro-Med, Louisville, Ky.). Animals were equilibrated for 45 min. Thereafter, a nitroxide (17 μmol/kg) was infused intravenously over 10 s. The mean arterial pressure (MAP) and heart rate (HR) were recorded over the first 5 min and at 10 and 15 min. This was followed by doses of 54, 72, 174, and 270 μmol/kg under similar conditions. The same protocol was followed with each nitroxide: T, 4-oxo-tempo (OT), 4-amino-tempo (AT), 3-carboxy-peroxyl (3-CTPY) (Aldrich, Milwaukee, Wis.), 3-carbomyl-proxyl (3-CP) (Sigma), and 4-trimethylammonium-2,2,6,6,-tetramethylpiperidine-1-oxyl iodide (CAT-1) (Molecular Probes, Eugene, Oreg.) (FIG. 3). Doses of bovine Cu/Zn SOD (MW 32,500; Oxis Research, Portland, Oreg.) were selected that had equivalent SOD mimetic activity in vitro to the doses of T used for intravenous studies: 34, 110, 140, 260, 350, and 540 U/kg. SOD injection followed a similar protocol to the nitroxides and was compared with vehicle-injected rats. Additional rats received injections of previously boiled SOD as a further control group. Six rats were studied in each group.
The mean±SE changes in MAP and HR were calculated from the individual dose-response relations. The responsiveness was the maximum effect, and the sensitivity was the expected dose for ED50. Data were analyzed by ANOVA with post hoc testing by the Dunnett test, where appropriate. Statistical significance was taken as P<0.05.

[3] = tested on: O2−. generated by xanthine plus xanthine oxidase; assay: Inhibition of O2−. generated by xanthine-xanthine oxidase in vitro (SOD mimetic activity, lucigenin chemiluminescence); format: biochemical; details: means ± SE
[4] = tested on: mesenteric resistance arteries (MRAs) from EC-SOD −/− and +/+ mice; assay: Contraction of isolated mesenteric resistance arteries (myograph); details: vessels from EC-SOD −/− mice; bath addition, 20 min; tempol 10^−4 M, PEG-SOD 100 units·ml^−1, catalase 300 units·ml^−1
Experimental: FIG. 19: Responses of mouse isolated mesenteric resistance vessles to endothelin-1: comparison of EC-SOD +/+ with −/−. (A) Contraction to endothelin-1, (B) Superoxide production with endothelin-1. Mean±SEM values (n=6-8 per group). Response to endothelin-1 in vessels incubated for 20 min with vehicle, tempol (10^−4 M), PEG-SOD (100 units·ml^−1), and catalase (300 units·ml^−1). Compared to vehicle, ***, p<0.005.
(§1) Reactive oxygen spice (ROS) and endothelin-1 (ET-1) contribute to angiotensin-induced hypertension. We used isolated mesenteric resistance arteries (MRAs) from EC-SOD knockout (−/−) mice (n=10) and EC-SOD wild type (+/+) mice (n=10), as a model to investigate the hypothesis that microvascular ET-1 and superoxide anion (O2.^−) interact to enhance contractility. Tension and O2.^− were quantitated in real time in dihydroethidium (DHE)-loaded MRAs in a myograph equipped with a dual-emission photon detection fluorescence system to measure ethidium (Eth): DHE ratio (E/D) as a direct readout of O2.^− activity. […] PEG-SOD normalized augmented ET-1 contraction (64±4% vs 71±3%; p=ns) and prevent an increase in E/D ratio in MRAs from −/− (0.6±0.5 vs 0.5±0.8, p=ns). In summary, ET-1 generates microvascular O2.^− that enhances its vasoconstrictive action.

[5] = tested on: mesenteric resistance arteries (MRAs) from EC-SOD −/− and +/+ mice; assay: Superoxide as ethidium:DHE ratio (E/D) in dihydroethidium-loaded mesenteric resistance arteries; details: dihydroethidium-loaded vessels from EC-SOD −/− mice; tempol 10^−4 M, PEG-SOD 100 units·ml^−1, catalase 300 units·ml^−1
Text: as §1
A current study contrasts the responses to endothelin-1 (ET-1) in mesenteric resistance vessels from EC-SOD (−/−) and (+/+) mice. […] Parallel studies of vascular superoxide in dihydroethidium-loaded vessels show enhanced conversion to ethidium, indicating enhanced superoxide formation, in vessels from EC-SOD −/−mice. […] We conclude that in the model system of SOD deficiency caused by gene deletion of EC-SOD in the mouse, tempol can correct enhanced contractions and enhanced oxidative stress. It is thereby envisioned as being effective in preventing hypertension and cardiovascular disease.

[6] = tested on: cremasteric microvessels in the anesthetized mouse; assay: In vivo EDRF (acetylcholine-induced vasodilation) responses of cremasteric microvessels; details: 10^−4 M tempol in superfusate; EC-SOD −/− mice and mice infused with Ang II 400 ng·kg^−1·min^−1 sc × 12 days
Experimental: FIG. 18: In vivo EDRF responses of cremasteric vessels are impaired by EC-SOD knockout or prolonged angiotensin II infusion but are restored by superfusion of tempol. Mean±SEM (n=c6 per group). Ang II infusion at 400 ng·kg^−1·min^−1 sc×12 days. T, 10^−4 M tempol in superfusate. Basal diameter 39±0.4 μm (similar in each group). Compared to EC-SOD +/+; *, p<0.05. Compared to vehicle infusion: †, p<0.05. All effects of tempol, p<0.005.
Our current studies have shown that the SOD mimetic drug tempol, when superfused over cremasteric microvessels in the anesthetized mouse, increases that acetylcholine-induced vasodilation response. This effect of acetylcholine is reduced in the EC-SOD (−/−) mouse and in normal and EC-SOD (−/−) mice infused for 12 days with Ang II which causes oxidative stress that bioinactivates nitric oxide which is a mediator of this response. […] This is important since acetylcholine-induced vasodilation is a test of endothelium-dependent relaxation (EDR). Defects in EDR are related to oxidative inactivation of nitric oxide and underlie many CVD risk factors. Thus defects in EDR could be the focus for abnormal vascular responses and increased CVD events in subjects with the R213G SNIP of EC-SOD.

[7] = measured previously in the literature; cited from earlier work
[8] = tested on: cell membranes; details: cited from earlier work

| SMILES | Maximum inhibition, % [1] [%] | O2−. generated by a xanthine-xanthine oxidase reaction extinguished [1] | acute change in MAP and HR [2] | ED50, μmol/kg [3] | maximal reduction in MAP (comparison between compounds) ([2]; graded intravenous doses) | time to maximum reductions in MAP and HR ([2]; graded intravenous doses) [min] | effect on enhanced contractions to ET-1 [4] | effect on enhanced superoxide formation with ET-1 [5] | acetylcholine-induced vasodilation (EDRF) response [6] | redox midpoint potential E1/2 [7] [mV] | permeation of cells [8] |
| --- | --- | --- | --- | --- | --- | --- | --- | --- | --- | --- | --- |
| CC1(C)CC(C(=O)O)C(C)(C)N1[O] (centres unmarked) [Compound 3-CTPY, 3-carboxy-peroxyl] | 15 ± 3 | significantly lower fraction | ineffective; also recorded: did not | ∞† | – | – | – | – | – | – | – |
| CC1(C)CC(O)CC(C)(C)N1[O] [T, 4-hydroxy-2,2,6,6-tetramethyl-1 piperidinyloxy] | 92 ± 1 | 92% | decreased MAP and HR acutely | – | greater maximal fall in MAP with T than CAT-1; also recorded: greatest reductions in MAP | ≤ 1 | normalized | normalized | restored to normal | 800 | permeates cell membranes freely |
